What all share (assay type): biochemical
For one assay, the target named is JNK2 (Homo sapiens, UniProt P45984). Put plainly: Kinase profiling JNK2. The conditions noted are these: 100 micromolar inhibitor concentration, 100 is no change. The source says: (§1) Any value less that 25 is considered to be highly significant inhibition.
Another assay deals with PKCγ (Homo sapiens, UniProt P05129). Put plainly: Kinase profiling PKCγ. Conditions: 100 micromolar inhibitor concentration, 100 is no change.
Text: as §1

In another assay the target is T1, PKCz (Homo sapiens, UniProt Q05513).
T1 sequence (Q05513 1-592): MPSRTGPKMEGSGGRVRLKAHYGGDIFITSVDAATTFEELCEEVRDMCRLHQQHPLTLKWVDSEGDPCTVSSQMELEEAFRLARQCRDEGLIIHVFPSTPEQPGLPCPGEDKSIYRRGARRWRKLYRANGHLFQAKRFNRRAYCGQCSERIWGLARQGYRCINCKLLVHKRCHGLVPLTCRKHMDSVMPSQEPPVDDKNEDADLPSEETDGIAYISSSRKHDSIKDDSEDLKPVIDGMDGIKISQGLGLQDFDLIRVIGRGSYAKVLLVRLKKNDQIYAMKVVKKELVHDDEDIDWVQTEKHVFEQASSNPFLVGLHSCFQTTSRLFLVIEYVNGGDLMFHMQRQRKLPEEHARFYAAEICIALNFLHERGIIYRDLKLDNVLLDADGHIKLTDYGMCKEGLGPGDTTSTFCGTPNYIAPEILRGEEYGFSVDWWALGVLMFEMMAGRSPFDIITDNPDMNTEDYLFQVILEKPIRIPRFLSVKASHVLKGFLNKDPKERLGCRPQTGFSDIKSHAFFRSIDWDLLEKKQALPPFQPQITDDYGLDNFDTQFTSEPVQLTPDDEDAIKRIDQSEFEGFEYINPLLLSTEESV
Put plainly: Kinase profiling PKCz. The conditions noted are these: 100 micromolar inhibitor concentration, 100 is no change.
Text: as §1

The next assay addresses T2, LKB1 (Homo sapiens, UniProt Q15831).
T2 sequence (Q15831 1-433): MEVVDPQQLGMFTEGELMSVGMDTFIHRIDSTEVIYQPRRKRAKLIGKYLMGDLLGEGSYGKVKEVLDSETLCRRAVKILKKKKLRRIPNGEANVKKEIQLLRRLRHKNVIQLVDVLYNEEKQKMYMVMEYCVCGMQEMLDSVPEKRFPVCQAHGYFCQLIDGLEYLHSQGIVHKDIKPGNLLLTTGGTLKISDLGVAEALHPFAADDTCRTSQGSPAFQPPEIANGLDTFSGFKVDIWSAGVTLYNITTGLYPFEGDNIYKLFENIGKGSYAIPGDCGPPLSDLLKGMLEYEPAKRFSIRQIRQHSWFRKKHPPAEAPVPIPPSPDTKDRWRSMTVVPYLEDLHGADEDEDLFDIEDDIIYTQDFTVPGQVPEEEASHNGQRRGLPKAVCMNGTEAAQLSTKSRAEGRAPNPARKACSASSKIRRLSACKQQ
T2 sequence (Q7RTN6 1-431 partner): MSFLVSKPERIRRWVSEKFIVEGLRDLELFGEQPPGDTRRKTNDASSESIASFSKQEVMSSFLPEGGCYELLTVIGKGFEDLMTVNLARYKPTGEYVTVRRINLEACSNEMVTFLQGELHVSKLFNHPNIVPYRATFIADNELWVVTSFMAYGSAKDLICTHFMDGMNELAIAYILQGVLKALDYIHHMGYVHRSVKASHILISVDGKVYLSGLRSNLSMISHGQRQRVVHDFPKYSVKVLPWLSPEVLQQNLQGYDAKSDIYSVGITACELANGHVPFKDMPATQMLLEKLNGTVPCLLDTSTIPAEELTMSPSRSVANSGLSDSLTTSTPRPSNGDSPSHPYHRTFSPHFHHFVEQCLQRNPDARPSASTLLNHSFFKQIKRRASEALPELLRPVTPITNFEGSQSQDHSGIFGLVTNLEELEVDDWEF
T2 sequence (Q9Y376 1-341 partner): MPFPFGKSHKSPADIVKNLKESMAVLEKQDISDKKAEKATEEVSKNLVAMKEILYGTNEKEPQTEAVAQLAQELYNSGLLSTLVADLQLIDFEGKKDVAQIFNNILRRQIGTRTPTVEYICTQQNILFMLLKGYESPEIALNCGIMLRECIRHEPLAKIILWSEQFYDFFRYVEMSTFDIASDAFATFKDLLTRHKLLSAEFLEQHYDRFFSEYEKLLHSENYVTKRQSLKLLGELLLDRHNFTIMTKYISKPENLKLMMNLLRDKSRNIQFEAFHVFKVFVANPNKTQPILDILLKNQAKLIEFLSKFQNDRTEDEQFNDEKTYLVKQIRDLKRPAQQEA
Kind of assay: Kinase profiling LKB1. Conditions: 100 micromolar inhibitor concentration, 100 is no change.
Text: as §1

Another assay concerns CK2. Put plainly: Kinase profiling CK2. The conditions noted are these: 100 micromolar inhibitor concentration; 100 is no change.
Text: as §1

In another assay the target is SRPK1 (Homo sapiens, UniProt Q96SB4). Put plainly: Kinase profiling SRPK1. Conditions: 100 micromolar inhibitor concentration, 100 is no change.
Text: as §1

Another assay has as its target T3, TTK (Homo sapiens, UniProt P33981).
T3 sequence (P33981 1-857): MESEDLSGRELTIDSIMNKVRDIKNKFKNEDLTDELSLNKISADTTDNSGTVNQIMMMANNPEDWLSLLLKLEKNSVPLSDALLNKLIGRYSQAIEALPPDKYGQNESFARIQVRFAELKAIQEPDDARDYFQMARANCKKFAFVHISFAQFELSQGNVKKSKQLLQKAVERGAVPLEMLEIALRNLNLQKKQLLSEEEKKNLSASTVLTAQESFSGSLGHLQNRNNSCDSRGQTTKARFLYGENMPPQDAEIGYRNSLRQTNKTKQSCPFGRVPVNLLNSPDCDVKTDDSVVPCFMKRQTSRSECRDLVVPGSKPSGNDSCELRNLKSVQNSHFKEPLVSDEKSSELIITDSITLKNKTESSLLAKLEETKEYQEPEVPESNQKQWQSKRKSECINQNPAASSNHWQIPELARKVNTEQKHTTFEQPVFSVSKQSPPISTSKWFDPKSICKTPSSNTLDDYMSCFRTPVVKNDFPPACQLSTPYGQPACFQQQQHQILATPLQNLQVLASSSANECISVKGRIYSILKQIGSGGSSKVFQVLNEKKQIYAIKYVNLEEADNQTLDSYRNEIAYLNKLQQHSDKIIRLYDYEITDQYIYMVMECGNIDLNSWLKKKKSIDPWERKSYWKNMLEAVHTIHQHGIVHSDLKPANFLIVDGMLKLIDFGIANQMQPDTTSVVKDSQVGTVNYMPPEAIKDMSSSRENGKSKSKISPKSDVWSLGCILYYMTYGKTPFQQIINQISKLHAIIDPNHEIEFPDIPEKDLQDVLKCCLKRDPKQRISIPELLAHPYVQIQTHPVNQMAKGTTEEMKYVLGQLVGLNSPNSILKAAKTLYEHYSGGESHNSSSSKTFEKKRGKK
Kind of assay: Kinase profiling TTK. Conditions: 100 micromolar inhibitor concentration, 100 is no change.
Text: as §1

A further assay concerns the target Src (Homo sapiens, UniProt P12931). Kind of assay: Kinase profiling Src. The conditions noted are these: 100 micromolar inhibitor concentration, 100 is no change.
Text: as §1

The next assay has as its target Lck (Homo sapiens, UniProt P06239). Put plainly: Kinase profiling Lck. Conditions: 100 micromolar inhibitor concentration, 100 is no change.
Text: as §1

The structures appear in SMILES notation.

Sequence of Src (P12931 whole entry, species assumed): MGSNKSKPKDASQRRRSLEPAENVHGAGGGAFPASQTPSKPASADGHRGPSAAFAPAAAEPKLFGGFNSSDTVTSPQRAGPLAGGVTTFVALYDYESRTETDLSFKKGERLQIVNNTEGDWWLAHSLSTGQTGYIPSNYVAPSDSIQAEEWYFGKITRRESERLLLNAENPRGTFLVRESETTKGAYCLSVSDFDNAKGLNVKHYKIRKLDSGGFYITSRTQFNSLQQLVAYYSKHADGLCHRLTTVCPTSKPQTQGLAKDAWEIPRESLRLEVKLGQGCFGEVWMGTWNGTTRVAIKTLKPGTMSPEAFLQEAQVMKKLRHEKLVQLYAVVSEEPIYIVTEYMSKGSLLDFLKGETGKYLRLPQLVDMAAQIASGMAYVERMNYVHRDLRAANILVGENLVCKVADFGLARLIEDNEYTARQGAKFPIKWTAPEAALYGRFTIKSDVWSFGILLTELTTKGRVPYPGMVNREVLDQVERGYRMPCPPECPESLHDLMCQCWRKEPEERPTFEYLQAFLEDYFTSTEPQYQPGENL
Sequence of SRPK1 (Q96SB4 whole entry, species assumed): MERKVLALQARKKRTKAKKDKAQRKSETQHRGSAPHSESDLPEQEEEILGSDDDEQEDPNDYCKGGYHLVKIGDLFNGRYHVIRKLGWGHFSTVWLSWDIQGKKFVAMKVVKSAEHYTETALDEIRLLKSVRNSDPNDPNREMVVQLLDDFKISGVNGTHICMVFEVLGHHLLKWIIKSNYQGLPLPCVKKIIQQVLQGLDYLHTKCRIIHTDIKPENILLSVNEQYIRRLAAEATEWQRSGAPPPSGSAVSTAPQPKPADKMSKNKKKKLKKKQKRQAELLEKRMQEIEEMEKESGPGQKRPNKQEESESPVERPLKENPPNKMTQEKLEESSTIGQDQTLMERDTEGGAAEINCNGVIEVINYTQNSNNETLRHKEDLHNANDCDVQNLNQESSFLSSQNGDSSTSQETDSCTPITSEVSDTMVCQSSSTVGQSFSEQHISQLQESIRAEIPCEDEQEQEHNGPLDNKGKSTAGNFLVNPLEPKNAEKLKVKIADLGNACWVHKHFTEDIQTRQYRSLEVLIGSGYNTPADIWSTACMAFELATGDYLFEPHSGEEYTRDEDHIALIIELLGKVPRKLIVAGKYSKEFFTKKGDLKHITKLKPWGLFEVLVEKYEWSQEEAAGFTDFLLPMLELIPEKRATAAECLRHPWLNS
Sequence of Lck (P06239 whole entry, species assumed): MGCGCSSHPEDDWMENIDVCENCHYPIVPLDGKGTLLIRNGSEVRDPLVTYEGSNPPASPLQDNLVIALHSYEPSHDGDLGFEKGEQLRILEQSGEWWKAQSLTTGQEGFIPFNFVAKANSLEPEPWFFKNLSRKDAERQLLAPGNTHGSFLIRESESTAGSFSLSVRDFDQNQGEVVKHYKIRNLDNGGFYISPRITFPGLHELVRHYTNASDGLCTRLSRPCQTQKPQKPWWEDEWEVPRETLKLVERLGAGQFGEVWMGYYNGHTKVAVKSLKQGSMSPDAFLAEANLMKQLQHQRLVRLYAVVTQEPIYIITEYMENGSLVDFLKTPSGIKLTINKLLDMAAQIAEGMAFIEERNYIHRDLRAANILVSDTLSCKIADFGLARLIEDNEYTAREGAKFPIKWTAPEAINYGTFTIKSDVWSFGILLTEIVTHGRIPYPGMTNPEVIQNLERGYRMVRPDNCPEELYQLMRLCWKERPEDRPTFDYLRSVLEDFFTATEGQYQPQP
Sequence of JNK2 (P45984 whole entry, species assumed): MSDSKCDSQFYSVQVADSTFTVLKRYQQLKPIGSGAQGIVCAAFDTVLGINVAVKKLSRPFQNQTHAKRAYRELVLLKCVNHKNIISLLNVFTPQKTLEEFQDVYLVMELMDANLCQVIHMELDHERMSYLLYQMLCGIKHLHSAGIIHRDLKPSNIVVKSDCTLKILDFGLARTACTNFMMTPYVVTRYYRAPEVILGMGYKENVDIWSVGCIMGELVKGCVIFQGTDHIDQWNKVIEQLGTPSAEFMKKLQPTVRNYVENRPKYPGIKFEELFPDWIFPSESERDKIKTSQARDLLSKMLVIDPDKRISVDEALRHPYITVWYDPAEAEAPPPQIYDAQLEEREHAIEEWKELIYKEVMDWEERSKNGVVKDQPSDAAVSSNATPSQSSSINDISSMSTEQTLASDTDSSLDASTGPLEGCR

Turning to `CC(=O)Nc1nc2cc(F)ccc2s1` [Compound 03-77], the remaining activity at 100 µM at JNK2 (read-out: residual kinase activity, JNK2) worked out at 99%; at PKCγ (read-out: residual kinase activity, PKCγ), 102%; at PKCz (read-out: residual kinase activity, PKCz), 110%; at LKB1 (read-out: residual kinase activity, LKB1), 85%; at SRPK1 (read-out: residual kinase activity, SRPK1), 65%; on TTK (read-out: residual kinase activity, TTK) it was 64%. Besides, the remaining activity at 100 µM came out at 80% on Src (read-out: residual kinase activity, Src) and 96% on Lck (read-out: residual kinase activity, Lck). In addition, the “residual kinase activity, CK2” value in the assay with CK2 is 81.
As for `O=C(Nc1nc2ccc(O)cc2s1)c1ccncc1` [Compound 08-42], on JNK2, the “residual kinase activity, JNK2” value stood at 90. Besides, on PKCγ, the “residual kinase activity, PKCγ” value is on record as 93. In addition, the “residual kinase activity, PKCz” value on PKCz is reported as 76. Besides, at LKB1, the “residual kinase activity, LKB1” value came out at 65. Also, in the assay with CK2, the “residual kinase activity, CK2” value worked out at 50. At SRPK1, the “residual kinase activity, SRPK1” value was determined as 19. Besides, the “residual kinase activity, TTK” value at TTK is reported as 32. Besides, the “residual kinase activity, Src” value at Src was found to be 62. Moreover, on Lck, the “residual kinase activity, Lck” value is on record as 79.
On to `O=C(Nc1nc2ccc(O)cc2s1)c1cccnc1` [Compound 08-44], for which the “residual kinase activity, JNK2” value on JNK2 is given as 90. Further, the “residual kinase activity, PKCγ” value on PKCγ turned out to be 73. Moreover, on PKCz, the “residual kinase activity, PKCz” value is listed as 81. In addition, the “residual kinase activity, LKB1” value on LKB1 came out at 45. Also, the “residual kinase activity, CK2” value in the assay on CK2 was determined as 19. Further, the “residual kinase activity, SRPK1” value on SRPK1 turned out to be 16. The “residual kinase activity, TTK” value on TTK amounted to 22. The “residual kinase activity, Src” value on Src is listed as 72. Also, the “residual kinase activity, Lck” value on Lck is reported as 82.

The values are drawn from patent publication US10231954B2, “Neurodegenerative therapies” (LYTIX BIOPHARMA AS, priority 2014, dated 2019).
